Laboratory results reported in the supplement of paper PMC10307832.

Legend:
Assay in all cases: relative viability (nuclei count vs DMSO), 5 days (fraction); higher = more cells survive
Dovitinib + Pemetrexed = compound: CN1CCN(c2ccc3nc(-c4c(N)c5c(F)cccc5[nH]c4=O)[nH]c3c2)CC1 [Dovitinib] + Nc1nc2[nH]cc(CCc3ccc(C(=O)N[C@@H](CCC(=O)O)C(=O)O)cc3)c2c(=O)[nH]1 [Pemetrexed] (partner 0.2 µM)
Summary of the method: (§1)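 Dosing by pin tool came one day after lung cancer cell lines were seeded in 1536-well plates, using either one drug or a fixed anchor-drug dose plus five library-drug doses (not always all listed) in √10 steps. After 5 days, nuclei were counted on 4× images. Relative viability is treated-well nuclei count divided by vehicle-well nuclei count, and values are medians of duplicate plates.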

Dovitinib + OSI-027 = compound: CN1CCN(c2ccc3nc(-c4c(N)c5c(F)cccc5[nH]c4=O)[nH]c3c2)CC1 [Dovitinib] + COc1cccc2cc(-c3nc([C@H]4CC[C@H](C(=O)O)CC4)n4ncnc(N)c34)[nH]c12 [OSI-027] (partner 0.5 µM)
Summary of the method: as §1

Dovitinib + Foretinib = compound: CN1CCN(c2ccc3nc(-c4c(N)c5c(F)cccc5[nH]c4=O)[nH]c3c2)CC1 [Dovitinib] + COc1cc2c(Oc3ccc(NC(=O)C4(C(=O)Nc5ccc(F)cc5)CC4)cc3F)ccnc2cc1OCCCN1CCOCC1 [Foretinib] (partner 0.25 µM)
Summary of the method: as §1

Dovitinib + AZD7762 = compound: CN1CCN(c2ccc3nc(-c4c(N)c5c(F)cccc5[nH]c4=O)[nH]c3c2)CC1 [Dovitinib] + NC(=O)Nc1cc(-c2cccc(F)c2)sc1C(=O)N[C@H]1CCCNC1 [AZD7762] (partner 0.2 µM)
Summary of the method: as §1

Cell Line | relative viability (Dovitinib + Pemetrexed; first compound 0.02 µM) | relative viability (Dovitinib + Pemetrexed; first compound 0.06325 µM) | relative viability (Dovitinib + Pemetrexed; first compound 0.2 µM) | relative viability (Dovitinib + Pemetrexed; first compound 0.6325 µM) | relative viability (Dovitinib + Pemetrexed; first compound 2 µM) | relative viability (Dovitinib + OSI-027; first compound 0.02 µM) | relative viability (Dovitinib + OSI-027; first compound 0.06325 µM) | relative viability (Dovitinib + OSI-027; first compound 0.2 µM) | relative viability (Dovitinib + OSI-027; first compound 0.6325 µM) | relative viability (Dovitinib + OSI-027; first compound 2 µM) | relative viability (Dovitinib + Foretinib; first compound 0.02 µM) | relative viability (Dovitinib + Foretinib; first compound 0.06325 µM) | relative viability (Dovitinib + Foretinib; first compound 0.2 µM) | relative viability (Dovitinib + Foretinib; first compound 0.6325 µM) | relative viability (Dovitinib + Foretinib; first compound 2 µM) | relative viability (Dovitinib + AZD7762; first compound 0.02 µM) | relative viability (Dovitinib + AZD7762; first compound 0.06325 µM) | relative viability (Dovitinib + AZD7762; first compound 0.2 µM) | relative viability (Dovitinib + AZD7762; first compound 0.6325 µM) | relative viability (Dovitinib + AZD7762; first compound 2 µM)
COR-L 105 | 1.23 | 1.09 | 1.05 | 1 | 0.92 | 0.722 | 0.637 | 0.649 | 0.659 | 0.784 | 0.921 | 0.993 | 1.2 | 1.14 | 1.31 | – | – | – | – | –
LK-2 | 0.309 | 0.274 | 0.287 | 0.342 | 0.265 | 0.187 | 0.192 | 0.202 | 0.252 | 0.173 | 1.39 | 1.21 | 1.4 | 0.946 | 1.04 | 0.402 | 0.549 | 0.308 | 0.408 | 0.274
NCI-H727 | – | – | – | – | – | 0.778 | 0.434 | 0.589 | 0.653 | 0.548 | 0.815 | 0.689 | 0.747 | 0.799 | 0.706 | 0.639 | 0.536 | 0.597 | 0.637 | 0.555
RERF-LC-KJ | 0.47 | 0.49 | 0.483 | 0.475 | 0.47 | 0.639 | 0.623 | 0.653 | 0.56 | 0.574 | 0.832 | 0.905 | 0.96 | 0.886 | 0.858 | 1.05 | 0.916 | 1.03 | 1.02 | 0.868
NCI-H2023 | 0.205 | 0.232 | 0.238 | 0.216 | 0.19 | 0.429 | 0.404 | 0.476 | 0.394 | 0.362 | 0.707 | 0.935 | 0.788 | 0.868 | 0.857 | – | – | – | – | –
NCI-H322M | 0.597 | 0.613 | 0.634 | 0.607 | 0.6 | 0.518 | 0.526 | 0.557 | 0.502 | 0.608 | 0.95 | 0.898 | 0.941 | 0.923 | 0.869 | 0.555 | 0.738 | 0.725 | 0.541 | 0.398
NCI-H1666 | 0.913 | 0.863 | 0.766 | 0.813 | 0.785 | 0.931 | 0.882 | 0.838 | 0.875 | 0.909 | 1.02 | 0.975 | 0.961 | 0.99 | 0.961 | 0.876 | 0.859 | 0.882 | 0.855 | 0.812
NCI-H1648 | 0.521 | 0.729 | 0.628 | 0.804 | 0.631 | 0.236 | 0.251 | 0.291 | 0.307 | 0.252 | – | – | – | – | – | 0.497 | 0.717 | 0.661 | 0.701 | 0.634
NCI-H2087 | 0.755 | 0.668 | 0.661 | 0.716 | 0.616 | 0.57 | 0.487 | 0.757 | 0.484 | 0.554 | 1.19 | 1.15 | 1.14 | 1.05 | 1.16 | 1.35 | 1.38 | 1.27 | 1.29 | 1.31
LU99A | 0.169 | 0.304 | 0.165 | 0.217 | 0.18 | 0.257 | 0.283 | 0.327 | 0.3 | 0.316 | 0.714 | 0.782 | 0.79 | 0.812 | 0.932 | 0.294 | 0.469 | 0.358 | 0.277 | 0.387
HCC-366 | 0.129 | 0.208 | 0.161 | 0.161 | 0.166 | 0.807 | 0.829 | 0.848 | 0.914 | 0.791 | 0.958 | 0.901 | 0.947 | 0.925 | 0.883 | 0.155 | 0.301 | 0.297 | 0.239 | 0.357
EKVX | 0.434 | 0.385 | 0.42 | 0.46 | 0.372 | 0.724 | 0.717 | 0.731 | 0.731 | 0.702 | 0.633 | 0.721 | 0.64 | 0.757 | 0.808 | 0.569 | 0.775 | 0.694 | 0.755 | 0.684
NCI-H522 | 1.05 | 1.03 | 1.22 | 0.949 | 1.02 | 0.685 | 0.721 | 0.654 | 0.768 | 0.686 | – | – | – | – | – | 0.704 | 0.81 | 0.878 | 0.813 | 0.974
NCI-H1755 | 0.432 | 0.382 | 0.433 | 0.4 | 0.423 | 0.744 | 0.732 | 0.759 | 0.714 | 0.712 | 0.935 | 0.895 | 1.03 | 0.92 | 0.969 | 0.427 | 0.461 | 0.484 | 0.593 | 0.436
NCI-H647 | 0.194 | 0.189 | 0.154 | 0.191 | 0.177 | 0.608 | 0.758 | 0.817 | 0.657 | 0.802 | 1.23 | 1.15 | 1.39 | 1.17 | 1.26 | 0.42 | 0.404 | 0.493 | 0.522 | 0.398
LC-2-ad | 0.27 | 0.29 | 0.306 | 0.259 | 0.269 | 0.879 | 0.929 | 0.984 | 0.744 | 0.831 | 0.989 | 0.946 | 1.03 | 0.911 | 1.05 | 0.842 | 0.835 | 0.819 | 0.883 | 0.88
NCI-H1793 | 1.27 | 0.735 | 0.96 | 0.916 | 0.943 | 0.304 | 0.269 | 0.313 | 0.332 | 0.302 | 0.775 | 0.532 | 0.684 | 0.604 | 0.745 | 0.453 | 0.316 | 0.505 | 0.306 | 0.53
